Drawing on ChEMBL document CHEMBL1208684 (Eur J Med Chem, 2010), this text covers IC50 and EC50 for 47 compounds.

The test system of one assay is K562. In words: Antiproliferative activity against human K562 cells after 48 hrs. The format is functional, cell-based. The note with it: K562, 48 h.
A further assay concerns the target Tubulin (Sus scrofa, UniProt P02554+P02550). The experiment in a line: Inhibition of pig brain tubulin polymerization after 30 mins by turbidimetry.
The nature of assay [1]: Cell cycle arrest in human KB/HeLa cells assessed as accumulation at G2/M phase after 24 hrs using propidium iodide staining by FACS analysis. In kind it is functional, cell-based.
Assay [2] in a line: Antiproliferative activity against rat LT12 cells after 48 hrs by XTT assay. The format is functional, cell-based. The note with it: LT12, 48 h.
The nature of assay [3]: Antiproliferative activity against multi drug-resistant rat LT12 cells after 48 hrs by XTT assay. The note with it: LT12, 48 h. In kind it is functional, cell-based.
A further assay concerns L1210. In words: Antiproliferative activity against vincristine-resistant mouse L1210 cells after 48 hrs by XTT assay. The format is functional, cell-based. The note with it: L1210, 48 h.
Assay [4] is described as follows: Antiproliferative activity against human KB/HeLa cells after 48 hrs by XTT assay. In kind it is functional, cell-based.
Another assay relates to RKO. The experiment in a line: Antiproliferative activity against human RKO cells expressing p27Kip1 after 48 hrs by XTT assay. The format is functional, cell-based.

For `O=C1c2cccc(Cl)c2C(Cc2ccc([N+](=O)[O-])cc2)c2cccc(Cl)c21` (configuration not stated), in the assay on K562, the IC50 was more than 15000 nM.
The same measure, in the same setting: as for `COc1cccc(CC2c3cccc(Cl)c3C(=O)c3cccc(Cl)c32)c1` (configuration not stated), the figure is more than 15000 nM.
For `COc1ccc(C=C2c3cccc(O)c3C(=O)c3c(O)cccc32)cc1O`, the IC50 in the assay with K562 came out at 1500 nM; at Tubulin, 1930 nM.
As for `COc1ccc(C=C2c3cccc(OC)c3C(=O)c3c(OC)cccc32)cc1`, the half-inhibitory concentration (IC50) is 1420 nM with K562 and more than 2000 nM against Tubulin.
The like results for `O=C1c2c(O)cccc2C(=Cc2ccccc2)c2cccc(O)c21` were, in that order, 2300 nM and more than 10000 nM.
For `COc1ccc(/C=C2\c3cccc(Cl)c3C(=O)c3cccc(Cl)c32)cc1O`, in that order: 210 nM and 420 nM.
Take `COc1cc(/C=C2\c3cccc(Cl)c3C(=O)c3cccc(Cl)c32)cc(OC)c1OC`: it took 18000 nM to reach half-maximal inhibition in the assay with K562 (IC50).
As for `COc1cc(C=C2c3cccc(Cl)c3C(=O)c3c(Cl)cccc32)cc(OC)c1O`, the half-inhibitory concentration (IC50) in the assay with K562 is 2000 nM; against Tubulin, 1660 nM.
For `COc1ccc(C=C2c3cccc(Cl)c3C(=O)c3c(Cl)cccc32)cc1`, in that order: 610 nM and 870 nM.
On to `COc1cc(C=C2c3cccc(Cl)c3C(=O)c3c(Cl)cccc32)ccc1O`, for which the half-maximal inhibitory concentration (IC50) in the assay on K562 stood at 5000 nM; at Tubulin, 6800 nM.
For `COc1ccc(C=C2c3cccc(O)c3C(=O)c3c(O)cccc32)cc1`, in that order: 2000 nM and 4000 nM.
Take `CC[C@]1(O)C[C@H]2CN(CCc3c([nH]c4ccccc34)[C@@](C(=O)OC)(c3cc4c(cc3OC)N(C=O)[C@H]3[C@@](O)(C(=O)OC)[C@H](OC(C)=O)[C@]5(CC)C=CCN6CC[C@]43[C@@H]65)C2)C1` [VINCRISTINE]: the EC50 in assay [1] is 2.4 nM.
For `COc1ccc(/C=C2\c3cccc(Cl)c3C(=O)c3cccc(Cl)c32)cc1`, the results for the concentration for half-maximal inhibition (IC50) in the assay on K562 and against Tubulin were 1400 nM and 690 nM, respectively.
In the case of `COc1ccc(C(=O)C=C2c3cccc(Cl)c3C(=O)c3c(Cl)cccc32)cc1`, the values for the IC50 in the assay with K562 and on Tubulin were 930 nM and 730 nM, respectively.
In the case of `COc1ccc(CC2c3cccc(Cl)c3C(=O)c3cccc(Cl)c32)cc1O` (configuration not stated), the concentration for half-maximal inhibition (IC50) with K562 amounted to 5100 nM.
For the compound `COc1ccc(C(=O)/C=C2\c3cccc(Cl)c3C(=O)c3cccc(Cl)c32)cc1OC`, the IC50 in the assay with K562 stood at 240 nM; at Tubulin it was 690 nM.
For `O=C(/C=C1\c2cccc(Cl)c2C(=O)c2cccc(Cl)c21)c1ccc([N+](=O)[O-])cc1`, the midpoint of inhibition in the assay on K562, the IC50, lay at 1900 nM. In other words, the single-digit micromolar range.
On to `COc1ccc(C=C2c3cccc(Cl)c3C(=O)c3c(Cl)cccc32)c(O)c1`, for which the 50% inhibitory concentration (IC50) turned out to be 500 nM in the assay with K562 and 1600 nM at Tubulin.
The like results for `COc1cccc(C(=O)/C=C2\c3cccc(Cl)c3C(=O)c3cccc(Cl)c32)c1` were, in that order, 250 nM and 690 nM.
In the case of `O=C1c2c(O)cccc2C(=Cc2ccc(O)c(O)c2)c2cccc(O)c21`, in the assay on K562, the concentration for half-maximal inhibition (IC50) was 2600 nM.
For the compound `O=C1c2cccc(Cl)c2/C(=C/c2ccccc2)c2cccc(Cl)c21`, the IC50 in the assay on K562 was more than 30000 nM.
`COc1ccc(CC2c3cccc(Cl)c3C(=O)c3cccc(Cl)c32)cc1` (configuration not stated) returned an IC50 with K562 of 13000 nM.
In turn, `O=C1c2cccc(Cl)c2C(Cc2ccc(Cl)cc2)c2cccc(Cl)c21` (configuration not stated) showed an IC50 in the assay with K562 of more than 15000 nM.
As for `O=C1c2cccc(Cl)c2C(Cc2ccccc2)c2cccc(Cl)c21` (configuration not stated), the IC50 in the assay on K562 is more than 15000 nM.
For `CC[C@]1(O)C[C@@H]2CN(CCc3c([nH]c4ccccc34)[C@@](C(=O)OC)(c3cc4c(cc3OC)N(C)[C@H]3[C@@](O)(C(N)=O)[C@H](O)[C@]5(CC)C=CCN6CC[C@]43[C@@H]65)C2)C1` [VINDESINE], the half-maximal inhibitory concentration (IC50) in assay [2] was 1 nM; in assay [3] it was 260 nM; in the assay on L1210 it was more than 5000 nM.
For the compound `COc1cc2c(c(OC)c1OC)-c1ccc(OC)c(=O)cc1[C@@H](NC(C)=O)CC2` [COLCHICINE], the IC50 in assay [4] is 30 nM; in the assay with RKO it was more than 10000 nM. Also, the EC50 in assay [1] stood at 14 nM.
As for `O=C1c2c(O)cccc2C(=Cc2ccc(O)cc2)c2cccc(O)c21`, in the assay with K562, inhibition was half-maximal at 2000 nM (IC50).
Turning to `O=C(/C=C1\c2cccc(Cl)c2C(=O)c2cccc(Cl)c21)c1ccccc1`, the IC50 in the assay on K562 worked out at 290 nM; at Tubulin, 1700 nM.
With `O=C1c2cccc(Cl)c2/C(=C\c2ccccc2)c2cccc(Cl)c21`, the IC50 with K562 is more than 30000 nM.
Regarding `COc1cc(C=C2c3cccc(O)c3C(=O)c3c(O)cccc32)cc(OC)c1OC`, the IC50 with K562 was 2600 nM; at Tubulin, more than 10000 nM.
The like results for `COc1cccc(C=C2c3cccc(Cl)c3C(=O)c3c(Cl)cccc32)c1O` were, in that order, 5000 nM and more than 2000 nM.
In the assay on K562, `O=C1c2c(O)cccc2C(=Cc2ccc(C(F)(F)F)cc2)c2cccc(O)c21` registered an IC50 of 1700 nM.
For the compound `COc1ccc(/C=C2/c3cccc(Cl)c3C(=O)c3cccc(Cl)c32)cc1`, the values for the IC50 with K562 and on Tubulin were 1300 nM and 520 nM, respectively.
For `COc1ccc(CC2c3cccc(Cl)c3C(=O)c3c(Cl)cccc32)cc1`, in that order: more than 80000 nM and more than 2000 nM.
Consider `O=C1c2c(O)cccc2C(=Cc2ccc([N+](=O)[O-])cc2)c2cccc(O)c21`, for which the half-maximal inhibitory concentration (IC50) is 1700 nM in the assay on K562 and more than 10000 nM on Tubulin.
Turning to `COc1cc(CC2c3cccc(Cl)c3C(=O)c3cccc(Cl)c32)cc(OC)c1OC` (configuration not stated), the IC50 with K562 was more than 15000 nM.
Consider `COc1ccc(C(=O)/C=C2\c3cccc(Cl)c3C(=O)c3cccc(Cl)c32)cc1`, for which the concentration for half-maximal inhibition (IC50) with K562 was determined as 220 nM; against Tubulin, 530 nM.
Consider `COc1ccc(C=C2c3cccc(O)c3C(=O)c3c(O)cccc32)cc1OC`, for which the concentration for half-maximal inhibition (IC50) with K562 is 2000 nM; on Tubulin it was more than 10000 nM.
As to `COc1cc(C=C2c3cccc(Cl)c3C(=O)c3c(Cl)cccc32)cc(OC)c1OC`, the IC50 in the assay on K562 was 10000 nM; at Tubulin it was more than 10000 nM.
For the compound `COc1cc(C(=O)C=C2c3cccc(Cl)c3C(=O)c3c(Cl)cccc32)cc(OC)c1OC`, the concentration for half-maximal inhibition (IC50) came out at 720 nM in the assay on K562 and 1620 nM against Tubulin.
For the compound `COc1cc(/C=C2/c3cccc(Cl)c3C(=O)c3cccc(Cl)c32)ccc1O`, the IC50 in the assay on K562 was 270 nM; at Tubulin, 380 nM.
`COC(=O)Nc1nc2cc(C(=O)c3cccs3)ccc2[nH]1` [NOCODAZOLE]: the IC50 was 140 nM in assay [4], 40 nM in assay [2], more than 10000 nM in the assay on RKO and 70 nM in assay [3]. For the same compound, the EC50 in assay [1] was 91 nM.
As for `CC(=O)Oc1ccc(C(=O)/C=C2\c3cccc(Cl)c3C(=O)c3cccc(Cl)c32)cc1`, the concentration for half-maximal inhibition (IC50) is 3400 nM in the assay with K562 and 410 nM against Tubulin.
`COc1ccc(/C=C2/c3cccc(Cl)c3C(=O)c3cccc(Cl)c32)c(OC)c1OC` came in with a 50% inhibitory concentration (IC50) in the assay with K562 of 17300 nM.
The same measure, in the same setting: with `O=C(/C=C1\c2cccc(Cl)c2C(=O)c2cccc(Cl)c21)c1ccc(Cl)cc1` the figure was 1600 nM.
Turning to `O=C(/C=C1\c2cccc(Cl)c2C(=O)c2cccc(Cl)c21)c1ccc(Br)cc1`, the IC50 is 1700 nM in the assay with K562 and 510 nM on Tubulin.
As for `COc1ccc(CC2c3cccc(Cl)c3C(=O)c3c(Cl)cccc32)cc1O`, the concentration for half-maximal inhibition (IC50) in the assay with K562 was found to be 1600 nM; at Tubulin it was 1200 nM.
